Key:
Experiment in all cases: ADP-Glo Kinase Assay
[1] = target: Non-receptor tyrosine-protein kinase TYK2 (Homo sapiens, UniProt P29597)
Procedure: (§1) The kinase activity of recombinantly generated catalytic kinase (also known as JH1) domain of human JAK1, JAK2, JAK3 and TYK2 were evaluated in a plate-based assay using the ADP-Glo™ Kinase Assay platform. Specifically, 4 nM of recombinant JAK1 kinase domain is used to phosphorylate 50 μM of a JAK3-342 (sequence ALVDGYFRLTT) peptide in the presence of 35 μM ATP. Catalytic activities of recombinant JAK2, JAK3 and TYK2 kinase domain (0.2, 0.3 and 2 nM, respectively) are evaluated by the phosphorylation status of the JAK3-974 (50 μM; sequence LPLDKDYYVVR) peptide with the addition of ATP (15, 4 and 10 μM, respectively). The reactions proceed for 100 minutes and the catalytic activity is quantified by first depleting the unused ATP, converting the hydrolyzed ADP into ATP to generate luminescence in a luciferase reaction; which is the basis of the ADP-Glo platform. Compounds are tested at either 10 μM or 1 μM top concentration, 11 points of 3-fold dilution.

[2] = target: Tyrosine-protein kinase JAK1 (Homo sapiens, UniProt P23458)
Sequence of Tyrosine-protein kinase JAK1 (P23458 whole entry): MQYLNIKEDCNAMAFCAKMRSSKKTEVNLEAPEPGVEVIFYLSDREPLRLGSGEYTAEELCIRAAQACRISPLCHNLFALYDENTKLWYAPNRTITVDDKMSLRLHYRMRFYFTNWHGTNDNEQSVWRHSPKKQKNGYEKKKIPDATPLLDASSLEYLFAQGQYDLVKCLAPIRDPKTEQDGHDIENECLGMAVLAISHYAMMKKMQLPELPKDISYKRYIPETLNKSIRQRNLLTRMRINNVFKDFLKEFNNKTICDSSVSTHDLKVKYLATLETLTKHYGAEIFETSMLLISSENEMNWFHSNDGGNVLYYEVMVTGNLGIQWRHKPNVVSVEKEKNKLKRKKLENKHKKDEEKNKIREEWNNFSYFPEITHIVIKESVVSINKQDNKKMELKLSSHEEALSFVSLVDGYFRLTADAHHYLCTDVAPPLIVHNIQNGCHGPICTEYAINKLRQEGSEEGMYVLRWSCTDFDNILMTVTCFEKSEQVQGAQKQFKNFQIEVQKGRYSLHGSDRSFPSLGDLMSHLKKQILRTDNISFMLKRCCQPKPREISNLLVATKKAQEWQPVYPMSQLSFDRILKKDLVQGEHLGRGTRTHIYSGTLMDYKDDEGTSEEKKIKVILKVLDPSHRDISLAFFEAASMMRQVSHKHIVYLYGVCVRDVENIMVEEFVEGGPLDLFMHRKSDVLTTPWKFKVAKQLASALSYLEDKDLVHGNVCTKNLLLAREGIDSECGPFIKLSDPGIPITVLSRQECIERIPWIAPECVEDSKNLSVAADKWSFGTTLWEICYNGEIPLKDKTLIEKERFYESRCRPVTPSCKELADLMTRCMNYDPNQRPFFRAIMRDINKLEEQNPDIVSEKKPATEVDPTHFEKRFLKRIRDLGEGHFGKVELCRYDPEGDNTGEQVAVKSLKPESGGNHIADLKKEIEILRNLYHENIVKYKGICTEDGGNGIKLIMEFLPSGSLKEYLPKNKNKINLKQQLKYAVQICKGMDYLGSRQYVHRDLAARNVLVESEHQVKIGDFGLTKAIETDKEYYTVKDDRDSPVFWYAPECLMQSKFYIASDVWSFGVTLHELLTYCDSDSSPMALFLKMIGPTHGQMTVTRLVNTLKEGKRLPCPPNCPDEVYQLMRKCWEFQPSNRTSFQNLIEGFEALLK
Procedure: as §1

[3] = target: Tyrosine-protein kinase JAK2 (Homo sapiens, UniProt O60674)
Sequence of Tyrosine-protein kinase JAK2 (O60674 whole entry): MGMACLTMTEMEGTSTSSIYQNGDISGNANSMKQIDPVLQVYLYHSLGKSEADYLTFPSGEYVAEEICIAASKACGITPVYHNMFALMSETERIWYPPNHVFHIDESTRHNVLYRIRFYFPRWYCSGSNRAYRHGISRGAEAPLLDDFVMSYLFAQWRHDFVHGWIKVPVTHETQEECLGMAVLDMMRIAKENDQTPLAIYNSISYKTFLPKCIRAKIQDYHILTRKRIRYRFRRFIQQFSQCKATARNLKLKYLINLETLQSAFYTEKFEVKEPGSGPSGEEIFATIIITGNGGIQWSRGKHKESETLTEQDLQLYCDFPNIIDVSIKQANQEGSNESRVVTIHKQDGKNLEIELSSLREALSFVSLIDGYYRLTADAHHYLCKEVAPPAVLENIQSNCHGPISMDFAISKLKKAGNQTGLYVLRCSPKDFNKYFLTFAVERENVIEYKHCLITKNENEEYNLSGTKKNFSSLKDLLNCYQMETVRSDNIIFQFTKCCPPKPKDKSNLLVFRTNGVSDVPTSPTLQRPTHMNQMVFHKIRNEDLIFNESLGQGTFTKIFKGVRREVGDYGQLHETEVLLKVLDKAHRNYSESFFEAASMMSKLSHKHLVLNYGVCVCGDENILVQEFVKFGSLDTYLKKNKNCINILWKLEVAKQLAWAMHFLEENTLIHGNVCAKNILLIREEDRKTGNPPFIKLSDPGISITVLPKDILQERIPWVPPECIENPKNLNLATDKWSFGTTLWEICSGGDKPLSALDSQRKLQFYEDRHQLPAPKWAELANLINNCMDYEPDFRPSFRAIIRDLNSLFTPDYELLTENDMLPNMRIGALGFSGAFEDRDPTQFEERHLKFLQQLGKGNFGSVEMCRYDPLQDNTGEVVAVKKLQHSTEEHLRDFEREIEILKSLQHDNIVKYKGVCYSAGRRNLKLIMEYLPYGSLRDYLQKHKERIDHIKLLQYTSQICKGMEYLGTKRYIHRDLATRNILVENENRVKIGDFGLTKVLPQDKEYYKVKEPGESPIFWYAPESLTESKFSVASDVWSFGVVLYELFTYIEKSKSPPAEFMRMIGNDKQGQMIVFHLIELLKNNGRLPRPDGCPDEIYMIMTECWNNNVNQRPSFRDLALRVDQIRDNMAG
Procedure: as §1

[4] = target: T1, Tyrosine-protein kinase JAK3 [3-974] (UniProt P52333)
T1 construct: 3-974
T1 sequence (P52333 whole entry): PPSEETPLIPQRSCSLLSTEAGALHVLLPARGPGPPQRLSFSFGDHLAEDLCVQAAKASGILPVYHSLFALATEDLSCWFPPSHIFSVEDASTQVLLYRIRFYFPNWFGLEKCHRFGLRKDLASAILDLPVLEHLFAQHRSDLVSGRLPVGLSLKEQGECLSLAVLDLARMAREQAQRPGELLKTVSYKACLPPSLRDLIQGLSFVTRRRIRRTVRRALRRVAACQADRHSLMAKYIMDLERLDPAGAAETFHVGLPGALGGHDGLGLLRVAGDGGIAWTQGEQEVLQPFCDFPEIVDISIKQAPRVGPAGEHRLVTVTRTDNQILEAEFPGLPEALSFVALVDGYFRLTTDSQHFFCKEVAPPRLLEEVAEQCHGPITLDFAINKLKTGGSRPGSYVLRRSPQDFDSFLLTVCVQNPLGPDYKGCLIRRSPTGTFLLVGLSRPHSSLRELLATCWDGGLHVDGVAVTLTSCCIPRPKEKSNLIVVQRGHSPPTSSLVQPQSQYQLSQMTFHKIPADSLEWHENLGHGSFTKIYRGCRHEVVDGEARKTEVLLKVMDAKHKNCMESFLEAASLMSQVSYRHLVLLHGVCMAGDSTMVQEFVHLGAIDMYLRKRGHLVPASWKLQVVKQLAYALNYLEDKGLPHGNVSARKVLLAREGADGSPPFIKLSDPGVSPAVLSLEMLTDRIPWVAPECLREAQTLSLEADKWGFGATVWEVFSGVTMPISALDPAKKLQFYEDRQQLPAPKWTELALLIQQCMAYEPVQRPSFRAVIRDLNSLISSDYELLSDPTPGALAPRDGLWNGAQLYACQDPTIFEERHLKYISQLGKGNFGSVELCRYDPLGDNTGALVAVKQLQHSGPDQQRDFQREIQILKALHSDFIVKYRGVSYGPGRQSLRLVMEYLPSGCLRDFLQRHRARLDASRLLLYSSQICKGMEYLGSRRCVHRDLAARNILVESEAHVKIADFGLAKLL
Procedure: as §1

Sequence of Non-receptor tyrosine-protein kinase TYK2 (P29597 whole entry, the tested form may be a part): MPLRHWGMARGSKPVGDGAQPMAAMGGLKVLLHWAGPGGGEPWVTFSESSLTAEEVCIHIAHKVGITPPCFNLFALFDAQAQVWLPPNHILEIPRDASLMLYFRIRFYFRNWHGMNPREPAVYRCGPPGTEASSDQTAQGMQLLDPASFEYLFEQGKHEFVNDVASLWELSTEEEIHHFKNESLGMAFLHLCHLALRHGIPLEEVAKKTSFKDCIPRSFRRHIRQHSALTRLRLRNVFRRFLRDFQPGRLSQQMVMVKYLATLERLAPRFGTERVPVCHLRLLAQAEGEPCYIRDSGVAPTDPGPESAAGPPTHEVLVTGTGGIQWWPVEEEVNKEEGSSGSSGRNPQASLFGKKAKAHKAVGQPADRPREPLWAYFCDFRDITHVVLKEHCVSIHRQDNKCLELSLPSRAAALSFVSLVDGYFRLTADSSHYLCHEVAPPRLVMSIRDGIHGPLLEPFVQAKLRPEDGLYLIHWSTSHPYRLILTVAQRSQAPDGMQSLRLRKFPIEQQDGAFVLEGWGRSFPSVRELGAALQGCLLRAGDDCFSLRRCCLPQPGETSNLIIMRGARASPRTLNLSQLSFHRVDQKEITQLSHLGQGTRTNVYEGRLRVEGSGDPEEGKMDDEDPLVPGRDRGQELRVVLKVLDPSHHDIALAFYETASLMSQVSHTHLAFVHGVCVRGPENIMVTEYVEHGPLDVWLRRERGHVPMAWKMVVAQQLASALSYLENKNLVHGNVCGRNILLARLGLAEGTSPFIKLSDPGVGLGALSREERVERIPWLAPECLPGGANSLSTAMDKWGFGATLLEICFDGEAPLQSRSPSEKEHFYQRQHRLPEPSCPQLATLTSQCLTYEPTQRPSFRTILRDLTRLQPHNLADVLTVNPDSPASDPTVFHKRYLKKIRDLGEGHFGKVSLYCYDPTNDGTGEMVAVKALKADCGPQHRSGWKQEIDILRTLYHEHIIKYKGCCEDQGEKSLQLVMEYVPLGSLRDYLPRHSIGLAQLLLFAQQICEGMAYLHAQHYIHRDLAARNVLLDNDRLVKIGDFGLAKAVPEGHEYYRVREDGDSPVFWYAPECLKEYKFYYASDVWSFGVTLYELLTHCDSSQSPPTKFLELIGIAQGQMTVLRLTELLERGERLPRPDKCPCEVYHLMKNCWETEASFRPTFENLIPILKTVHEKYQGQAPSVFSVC

SMILES | IC50 [1] | IC50 [2] | IC50 [3] | IC50 [4]
Cn1cc(-c2cc3c(N4CC5CCC(C4)N5C(=O)[C@@H]4CC4(F)F)ccnc3[nH]2)cn1 [US20240360157, Example 239] | 0.2 nM | 18 nM | 8 nM | 114 nM
COc1cc(-c2cc3c(N4CC5CCC(C4)N5C(=O)[C@@H]4C[C@H]4F)ccnc3[nH]2)c(F)cn1 [US20240360157, Example 246] | 5.1 nM | 76 nM | 53 nM | 992 nM

From BindingDB's records for patent US20240360157 (Biogen Ma, 2024)
